Values after ≈ are worked out from the molar mass of the structure shown.
How the values were obtained:
[1] = system: MCF7 cells; assay: Seahorse XF96 metabolic flux analysis (OCR/ECAR); format: cell-based, human; conditions: top 10 hits, FIG. 10
Text: The present approach further involves methods of functional validation at step S105, during which a compound's function as a mitochondrial inhibitor may be confirmed. A number of methods may be used for functional validation, including, for example, metabolic flux analysis, mammosphere assays, viability assays, and antibiotic (anti-bacterial and/or anti-fungal) activity. For example, the inventors determined extracellular acidification rates (ECAR) and real-time oxygen consumption rates (OCR) for MCF7 cells using the Seahorse Extracellular Flux (XF96) analyzer (Seahorse Bioscience, MA, USA). MCF7 cells were maintained in DMEM supplemented with 10% FBS (fetal bovine serum), 2 mM GlutaMAX, and 1% Pen-Strep. 5,000 cells per well were seeded into XF96-well cell culture plates, and incubated overnight at 37° C. in a 5% CO2 humidified atmosphere. After 24 hours, cells were treated with selected compounds showing ATP-depletion without prominent cytotoxicity at various concentrations (or vehicle alone). After 72 hours of treatment, cells were washed in pre-warmed XF assay media (for OCR measurement, XF assay media was supplemented with 10 mM glucose, 1 mM Pyruvate, 2 mM L-glutamine and adjusted at pH 7.4). Cells were maintained in 175 μL/well of XF assay media at 37° C. in a non-CO2 incubator for 1 hour. During incubation, 25 μL of 80 mM glucose, 9 μM oligomycin, 1M 2-deoxyglucose (for ECAR measurement) and 25 μL of 10 μM oligomycin, 9 μM FCCP, 10 μM rotenone, 10 μM antimycin A (for OCR measurement) in XF assay media was loaded into the injection ports of the XFe-96 sensor cartridge. During the experiment, the instrument injected these inhibitors into the wells at a given time point, while ECAR/OCR was measured continuously. ECAR and OCR measurements were normalized by protein content (using the Sulphorhodamine B assay). Data sets were analyzed by XFe-96 software, using one-way ANOVA and Student's t-test calculations. All experiments were performed in triplicate, and results validated the mitochondrial inhibition effects of mitoriboscin compounds described herein. It should be appreciated that numerous methods are known for functional validation, and that persons of skill in the art may select one or more depending on the validation needs (e.g., other assays that measure or approximate mitochondrial function). The present approach involves methods of function validation of mitoriboscin compounds. For example, the inventors assessed functional validation of three candidates using the Seahorse Analyzer, which quantitatively measures oxygen consumption rate (OCR) and extracellular acidification rate (ECAR). OCR is a surrogate marker for OXPHOS and ECAR is a surrogate marker for glycolysis and L-lactate production.

[2] = system: MRSA ATCC 43300; assay: MIC by broth dilution method; format: cell-based, Methicillin-resistant Staphylococcus aureus
Protocol: (§1) The minimal inhibitory concentration (MIC) of the antibacterial compounds may be determined using the broth dilution method, according to CLSI guidelines. Test compound solutions (or antibiotic solutions used as positive controls) were diluted, serially, with MHB medium. Then, the suspensions of the microorganisms, prepared from overnight cultures of bacteria in the MHB medium, at a concentration of 10^6 CFU/ml, were added to each dilution in a 1:1 ratio. McFarland standards were used as a reference to adjust the turbidity of microorganism suspensions. Growth (or lack thereof) of the microorganisms was determined after incubation for 24 hours at 37° C. by turbidimetry (wavelength of 600 nm). MIC 50 and MIC 99 are defined as the minimum inhibitory concentration of the compound required for 50% and 99% inhibition of bacterial growth. […] The susceptibility test by measurement of MIC was performed in triplicate and repeated three times independently. Statistical significance was determined using the Student's t-test and values of less than 0.05 were considered significant.
(§2) In order to determine the minimal inhibitory concentration (MIC) for 24/F9, 24/D4 and 23/G4, the broth dilution method may be performed.

[3] = system: P. auriginosa ATCC 27853; assay: MIC by broth dilution method; format: cell-based, P. aeruginosa; conditions: Pseudomonas aeruginosa, ATCC27853
Protocol: as §1, with “nm).” for “nm). MIC 50 and MIC 99 are defined as the minimum inhibitory concentration of the compound required for 50% and 99% inhibition of bacterial growth.”, “independently.” for “independently. Statistical significance was determined using the Student's t-test and values of less than 0.05 were considered significant.”

[4] = system: Strept. pyogenes ATCC 19615; assay: MIC by broth dilution method; format: cell-based; conditions: Streptococcus pyogenes, ATCC19615
Protocol: as §1, with “nm).” for “nm). MIC 50 and MIC 99 are defined as the minimum inhibitory concentration of the compound required for 50% and 99% inhibition of bacterial growth.”, “independently.” for “independently. Statistical significance was determined using the Student's t-test and values of less than 0.05 were considered significant.”

[5] = system: E. coli ATCC 25922; assay: MIC by broth dilution method; format: cell-based; conditions: Escherichia coli, ATCC25922; E. coli ATCC 25922, 24 hours at 37° C.
Protocol: as §1, with “nm).” for “nm). MIC 50 and MIC 99 are defined as the minimum inhibitory concentration of the compound required for 50% and 99% inhibition of bacterial growth.”, “independently.” for “independently. Statistical significance was determined using the Student's t-test and values of less than 0.05 were considered significant.”

[6] = system: K. pneumoniae ATCC 13883; assay: MIC by broth dilution method; format: cell-based; conditions: Klebsiella pneumoniae, ATCC13883
Protocol: as §1, with “nm).” for “nm). MIC 50 and MIC 99 are defined as the minimum inhibitory concentration of the compound required for 50% and 99% inhibition of bacterial growth.”, “independently.” for “independently. Statistical significance was determined using the Student's t-test and values of less than 0.05 were considered significant.”

[7] = system: Staph. aureus ATCC 25923 (MSSA); assay: MIC by broth dilution method; format: cell-based; conditions: for MIC50 / MIC99: Staphylococcus aureus, Staph. aureus ATCC 25923 (Table 3)
Protocol: as §1, with “nm).” for “nm). MIC 50 and MIC 99 are defined as the minimum inhibitory concentration of the compound required for 50% and 99% inhibition of bacterial growth.”, “independently.” for “independently. Statistical significance was determined using the Student's t-test and values of less than 0.05 were considered significant.”

[8] = system: C. albicans; assay: MIC by broth dilution method; format: cell-based; conditions: Candida albicans, ATCC13883; C. albicans ATCC 13883
Protocol: as §1, §2

[9] = Staphylococcus aureus, MRSA ATCC 43300

Compound	rank order potency to reduce maximal respiration and ATP production [1]	sensitivity of MRSA ([2]; MRSA, summary of Table 4)	MIC50 [2, 9] [µg/mL]	MIC99 [2, 9] [µg/mL]	MIC50 [3] [µg/mL]	MIC99 [3] [µg/mL]	MIC50 [4] [µg/mL]	MIC99 [4] [µg/mL]	MIC50 [5] [µg/mL]	MIC99 [5] [µg/mL]	MIC50 [6] [µg/mL]	MIC99 [6] [µg/mL]	MIC 50% ([7]; MSSA ATCC 25923 (Table 4)) [µg/mL]	MIC 99% ([7]; MSSA ATCC 25923 (Table 4)) [µg/mL]	MIC50 [7] [µg/mL]	MIC99 [7] [µg/mL]	MIC99 [8] [µg/mL]	MIC50 [8] [µg/mL]
CN(C)Cc1cccc(C2CCCN2Cc2ccccc2OCc2cccc(F)c2)n1 (stereo not drawn) [25/B3]	top 6																	
CC1(C)S[C@@H]2[C@H](NC(=O)[C@H](N)c3ccc(O)cc3)C(=O)N2[C@H]1C(=O)O [AMOXICILLIN, reference compound]		resistant	> 64	> 64	128 (≈ 350 µM)	256 (≈ 701 µM)	4 (≈ 10.9 µM)	8 (≈ 21.9 µM)	16 (≈ 43.8 µM)	> 32	32 (≈ 87.6 µM)	> 64	4 (≈ 10.9 µM)	8 (≈ 21.9 µM)	4 (≈ 10.9 µM)	8 (≈ 21.9 µM)		
C[C@H]1c2cccc(O)c2C(=O)C2=C(O)[C@]3(O)C(=O)C(C(N)=O)=C(O)[C@@H](N(C)C)[C@@H]3[C@@H](O)[C@@H]21 [DOXYCYCLINE, reference compound]					1 (≈ 2.25 µM)	2 (≈ 4.5 µM)	0.5 (≈ 1.13 µM)	1 (≈ 2.25 µM)	0.5 (≈ 1.13 µM)	2 (≈ 4.5 µM)	2 (≈ 4.5 µM)	4 (≈ 9 µM)			0.5 (≈ 1.13 µM)	1 (≈ 2.25 µM)	> 64	
CC(=O)NC[C@H]1CN(c2ccc(N3CCOCC3)c(F)c2)C(=O)O1 [LINEZOLID, reference compound]					64 (≈ 190 µM)	256 (≈ 759 µM)	1 (≈ 2.96 µM)	2 (≈ 5.93 µM)	128 (≈ 379 µM)	> 128	128 (≈ 379 µM)	256 (≈ 759 µM)			1 (≈ 2.96 µM)	2 (≈ 5.93 µM)		
Clc1ccc(COC(Cn2ccnc2)c2ccc(Cl)cc2Cl)c(Cl)c1 (stereo not drawn) [MICONAZOLE, reference compound]																	1 (≈ 2.4 µM)	0.5 (≈ 1.2 µM)

From patent publication US11311501B2, “Mitoriboscins: mitochondrial-based therapeutics targeting cancer cells, bacteria, and pathogenic yeast” (LUNELLA BIOTECH, INC., priority 2017, dated 2022)
